Source: patent US20090171592A1, “Homology Models of Mammalian Zinc Transporters and Methods of Using Same” (Brookhaven Science Associates, LLC, priority 2007, published 2009)
Like-named read-outs stand apart in the source and are kept apart here.

Experiments:
YiiP [1] = target: T1, YiiP (Escherichia coli, UniProt P69380); conditions: cited from earlier work
YiiP [2] = target: T1, YiiP; conditions: cited from earlier work; remark: listed apart in the source
YiiP [3] = target: T1, YiiP; conditions: Kd1 145 μM vs Kd2 0.24 μM
Description: Anomalous difference Fourier maps of native crystals were computed using experimental phases and diffraction data collected at the zinc edge.

T1 sequence (P69380 whole entry): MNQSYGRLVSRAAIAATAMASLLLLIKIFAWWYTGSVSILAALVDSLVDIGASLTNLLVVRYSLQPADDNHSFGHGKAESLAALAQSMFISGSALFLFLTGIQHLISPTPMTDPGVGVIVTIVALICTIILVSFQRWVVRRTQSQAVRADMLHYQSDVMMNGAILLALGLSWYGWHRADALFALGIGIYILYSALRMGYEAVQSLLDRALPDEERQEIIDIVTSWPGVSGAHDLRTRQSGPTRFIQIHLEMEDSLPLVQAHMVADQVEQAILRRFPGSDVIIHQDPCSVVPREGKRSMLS

Row | Structure (SMILES) | binding affinities, metal binding mapped to D49 and D157 in the transmembrane domain (YiiP [1]) | Zn2+ stoichiometry units per YiiP protomer (YiiP [1]; EDTA pre-treated YiiP) | Kd (YiiP [1]; read-out: dissociation constant (Kd, Kd1), low affinity component / site-Z2, low-affinity binding component, intracellular-facing site-Z2) | Kd (YiiP [1]; read-out: dissociation constant (Kd, Kd2), high affinity sites / site-Z1, two high affinity Zn2+-binding sites, overall Kd, attributed to site-Z1) | turnover rate of Zn2+ transport across the membrane (YiiP [2]; 30-ms timescale) | Km (YiiP [2]; read-out: Michaelis-Menten constant (Km) of Zn2+ transport by YiiP) | affinity difference between site-Z1 and Z2 (YiiP [3])
1 | [Cd+2] [Cd^2+] | submicromolar range |  |  |  |  |  | 
2 | [Zn+2] [Zn^2+] | submicromolar range | 2.6 | 145 µM | 0.24 µM | 34 s^− | 310 µM | 604 fold
